Like-named read-outs stand apart in the source and are kept apart here.
How the values were obtained:
[1] = biological target: T1, B^0AT1 (Homo sapiens, UniProt Q695T7); assay: Radioactive flux assay (radiolabelled leucine/isoleucine uptake) in CHO-BC cells; format: cell-based; details: 150 μM [14C]leucine or [14C]isoleucine, 6 min, 37°C
T1 construct: expressed in transfected cells
T1 sequence (Q695T7 1-634): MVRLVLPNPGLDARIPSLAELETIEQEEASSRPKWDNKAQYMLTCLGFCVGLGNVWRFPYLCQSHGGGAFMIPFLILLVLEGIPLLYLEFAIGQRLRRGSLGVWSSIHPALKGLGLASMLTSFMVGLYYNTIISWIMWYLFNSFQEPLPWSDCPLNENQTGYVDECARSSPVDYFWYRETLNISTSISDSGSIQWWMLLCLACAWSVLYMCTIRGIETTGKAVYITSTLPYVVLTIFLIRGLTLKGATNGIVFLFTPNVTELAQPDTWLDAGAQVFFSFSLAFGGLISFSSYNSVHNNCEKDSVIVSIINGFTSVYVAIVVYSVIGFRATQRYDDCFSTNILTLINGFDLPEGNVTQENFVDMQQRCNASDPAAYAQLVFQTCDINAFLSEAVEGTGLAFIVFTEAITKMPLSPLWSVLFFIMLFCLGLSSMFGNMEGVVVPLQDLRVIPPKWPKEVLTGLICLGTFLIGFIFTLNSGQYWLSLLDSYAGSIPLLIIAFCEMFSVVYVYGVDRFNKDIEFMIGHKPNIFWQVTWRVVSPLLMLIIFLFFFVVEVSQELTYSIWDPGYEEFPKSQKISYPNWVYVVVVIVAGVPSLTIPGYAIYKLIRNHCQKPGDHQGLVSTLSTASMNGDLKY
T1 sequence (Q9HBJ8 15-222 partner): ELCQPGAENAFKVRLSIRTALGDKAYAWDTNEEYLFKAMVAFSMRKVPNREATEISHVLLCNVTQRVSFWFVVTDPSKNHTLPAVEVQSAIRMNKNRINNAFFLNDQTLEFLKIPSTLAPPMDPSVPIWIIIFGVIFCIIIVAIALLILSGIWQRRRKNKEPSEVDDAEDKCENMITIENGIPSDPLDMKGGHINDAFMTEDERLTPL
Description: CHO-BC cells with passage numbers from 3 to 10 were used in radio-labelled uptake assays. Before the assay, the cells were seeded out in 35 mm dishes (Corning) and maintained for 48–72 h until reaching 80–90% confluence. To initiate transport, the culture medium was removed and the cells washed three times with HBSS + G. Subsequently, cells were incubated with HBSS + G, radiolabelled substrates (150 μM L-[U-^14C]leucine or 150 μM L-[U-^14C]isoleucine) and inhibitors as indicated in the figures or table in a 37°C water bath for 6 min. To terminate transport, cells were washed three times with ice-cold HBSS pH 7.5. For measuring sodium-independent uptake, NaCl in Hank’s buffer was replaced by NMDG-Cl. Cells were then harvested by homogenizing with 500 µl of 0.1 M HCl. An aliquot of 400 µl was used for scintillation counting and the remainder for protein quantification. To investigate inhibition of ASCT2, uptake of 100 μM [^14C]glutamine was measured in 143B cells in the absence and presence of inhibitor (at 10 μM and 50 μM). To measure inhibition of LAT1, uptake of [^14C]leucine was measured in HBSS + G in which NaCl was replaced by NMDG-Cl in 143B cells in the absence and presence of inhibitor (at 10 μM and 50 μM).
(§1) Data are shown as mean ± S.D., transport activities indicated as Na^+-dependent net uptake, were calculated by subtracting the uptake activity in the absence of Na^+ from the total uptake rate. The fluorescent signals measured in the FLIPR assay were normalized to baseline readings before the addition of substrates. Data are presented as percentage of baseline at each time point. IC50 was calculated using the equation: y=ymax(1−[x]/[x]+IC50) .

[2] = biological target: T1, B^0AT1; assay: Membrane potential detecting FLIPR assay in CHO-BC cells; format: cell-based; details: 30 min pre-incubation, leucine or isoleucine 1.5 mM
Description: CHO-B^0AT1-collectrin Cells (CHO-BC) were generated, cultured, and used as described recently ([Cheng et al., 2017]). Expression levels of B^0AT1 in CHO-BC cells decline over time. As a result, passages <10 were used for experiments. The cells were maintained in Ham’s F-12 glutamax media with 10% (v/v) fetal bovine serum (FBS, Heat inactivated, 10082147 Gibco), 1mM glutamine, 300μg/ml hygromycin B and 275 μg/ml geneticin.
Membrane depolarisation induced by amino acid transport was monitored using a FLIPR® kit (Molecular Devices, R8042 BLUE DYE). Before the assay, CHO-BC cells were seeded out at a density of 60,000 cells/well and maintained in a flat transparent bottom 96-well plate (Corning) overnight. After washing three times with Hank’s balanced salt solution (136.6 mM NaCl, 5.4 mM KCl, 0.44 mM KH2PO4, 2.7mM Na2HPO4, 1.26mM CaCl2, 0.5mM MgCl2, 0.4 mM MgSO4, 10mM HEPES, pH 7.5, supplemented with 5 mM glucose, abbreviated HBSS + G), cells in each well were incubated for 30 min at room temperature in 50 µl of HBSS pH 7.5 containing 5 mM glucose and compounds as indicated, together with 50 µl of dye-loading buffer provided with the kit. Subsequently, the fluorescence signal was detected every 10 s before and after the addition of leucine or isoleucine at a final concentration of 1.5 mM. Fluorescence was detected at room temperature using a PerkinElmer multimode Plate Reader, with an excitation wavelength of 530 nm and emission wavelength of 565 nm.
as §1

[3] = biological target: T1, B^0AT1; details: reference not printed at the place; ref Danthi et al., 2019; cited from earlier work
[4] = biological target: T2, B^0AT1 (Mus musculus, UniProt Q9D687); assay: Na+-dependent leucine uptake in inverted sections of mouse intestine; details: 50 μM inhibitor, 150 μM [14C]leucine
T2 construct: from tissue; host or cells: small intestine of C57/BL6J female mice, inverted 1 cm sections
Excerpt: For uptake assays with inverted sections of mouse small intestine, 5–7 months old C57/BL6J female mice were sacrificed by cervical dislocation (Animal ethics protocol A2016/41, Australian National University). The small intestine was removed and the intestinal lumen was rinsed with ice-cold 0.9% NaCl. Subsequently, the small intestine was inverted on a metal rod to expose the mucosa. The inverted intestine was then cut into 1 cm pieces and fitted onto enzyme spatulas, which were immersed in HBSS pH 7.5 supplemented with 1 mM glutamine and protease inhibitor (Roche Complete). After washing twice in modified HBSS pH 7.5 (containing 10% NaCl + 90% NMDG-Cl for Na^+-dependent uptake and 100% NMDG-Cl for Na^+-independent uptake, both buffers supplemented with 1 mM glutamine) to remove residual compounds, the segments were pre-incubated in the same buffer in the presence of 50 µM of transport inhibitor and protease inhibitors for 15 min. At the end of the pre-incubation, the segments were transferred for 30 s into uptake buffer at 37°C (HBSS pH 7.5 supplemented with 150 μM [^14C]leucine and 50 µM transport inhibitor). For Na^+-dependent uptake regular HBSS was used, for Na^+-independent uptake NaCl was replaced by NMDG-Cl. Subsequently, the segments were rinsed three times in ice-cold HBSS pH 7.5 and lysed in 400 µl of 10% SDS. After 2–3 h, the lysed tissues were analyzed by scintillation counting.
To test whether the novel B^0AT1 inhibitors block the transporter in a more physiological environment, we studied leucine uptake in inverted sections of mouse intestine ( Figure 6C ). We established previously that Na^+-dependent leucine uptake (blue bars) in this system is mediated by B^0AT1 ([Broer et al., 2011]). In addition leucine uptake has a Na^+-independent transport component (salmon coloured bars), which is most likely mediated by rbat/b^0,+AT. Because of variability between animals, all data were normalized to uninhibited controls from the same animal.

[5] = tested on: B^0AT1; details: rat brush-border B^0AT1 in proteoliposomes; ref Pochini et al., 2014; cited from earlier work

T2 sequence (Q9D687 whole entry): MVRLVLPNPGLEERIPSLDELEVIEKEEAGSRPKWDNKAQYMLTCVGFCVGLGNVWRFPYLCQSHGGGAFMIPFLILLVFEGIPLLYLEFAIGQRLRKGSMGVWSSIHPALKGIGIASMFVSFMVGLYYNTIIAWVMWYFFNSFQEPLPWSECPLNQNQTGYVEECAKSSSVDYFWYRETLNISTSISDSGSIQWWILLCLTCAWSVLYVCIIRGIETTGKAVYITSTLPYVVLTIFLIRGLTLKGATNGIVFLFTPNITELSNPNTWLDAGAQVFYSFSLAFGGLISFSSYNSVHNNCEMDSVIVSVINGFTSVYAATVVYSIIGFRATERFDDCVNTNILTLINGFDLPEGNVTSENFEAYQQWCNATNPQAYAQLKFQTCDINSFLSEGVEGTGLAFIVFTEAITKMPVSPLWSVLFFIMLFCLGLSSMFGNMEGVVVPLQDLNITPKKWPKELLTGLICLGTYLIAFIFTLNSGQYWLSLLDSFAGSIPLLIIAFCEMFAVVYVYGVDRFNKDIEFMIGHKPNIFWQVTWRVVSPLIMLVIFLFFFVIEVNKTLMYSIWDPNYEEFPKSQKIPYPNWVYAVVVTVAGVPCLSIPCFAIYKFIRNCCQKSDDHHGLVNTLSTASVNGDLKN
T2 sequence (Q8R0I0 18-805 partner): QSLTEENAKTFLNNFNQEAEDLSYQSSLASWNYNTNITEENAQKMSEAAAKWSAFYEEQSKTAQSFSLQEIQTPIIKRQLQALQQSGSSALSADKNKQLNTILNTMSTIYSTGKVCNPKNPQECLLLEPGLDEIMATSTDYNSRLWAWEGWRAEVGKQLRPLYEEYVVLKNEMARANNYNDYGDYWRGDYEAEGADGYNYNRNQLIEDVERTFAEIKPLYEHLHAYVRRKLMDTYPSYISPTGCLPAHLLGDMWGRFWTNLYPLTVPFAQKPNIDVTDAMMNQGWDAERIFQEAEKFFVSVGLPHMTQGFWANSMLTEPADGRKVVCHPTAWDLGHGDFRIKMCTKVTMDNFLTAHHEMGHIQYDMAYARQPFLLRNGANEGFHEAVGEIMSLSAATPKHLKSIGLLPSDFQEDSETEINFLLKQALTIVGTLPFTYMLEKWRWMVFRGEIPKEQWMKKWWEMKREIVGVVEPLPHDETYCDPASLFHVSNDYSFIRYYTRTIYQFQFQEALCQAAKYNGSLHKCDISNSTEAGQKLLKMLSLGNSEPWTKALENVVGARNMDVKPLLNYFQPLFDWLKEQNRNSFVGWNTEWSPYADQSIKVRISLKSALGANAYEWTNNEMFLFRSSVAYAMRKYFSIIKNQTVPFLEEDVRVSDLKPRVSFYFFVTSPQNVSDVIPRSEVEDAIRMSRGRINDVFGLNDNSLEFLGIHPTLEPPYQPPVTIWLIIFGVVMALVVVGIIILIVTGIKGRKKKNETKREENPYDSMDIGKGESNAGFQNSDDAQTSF

CN1[C@@H]2CC[C@H]1C[C@@H](OC(c1ccccc1)c1ccccc1)C2 [Benztropin, benztropine, reference compound]
IC50 [1]: 71 ± 8 µM
IC50 [2]: 44 ± 9 µM

CCNC(=O)/C=C/c1cccc(Br)c1 [Cinromide, cinromide, reference compound]
IC50 [3]: 0.3 µM
IC50 [2]: 0.5 ± 0.08 µM
Inhibition of Na+-dependent leucine uptake (B^0AT1) ex vivo [4]: limited capacity to inhibit B^0AT1

COc1ccc(C(CCCN2CCOCC2)c2ccccc2)cc1 (stereo not shown) [Compound E-47]
IC50 [1]: 17 ± 9 µM
IC50 [2]: 21 ± 6 µM

COc1ccc(C(CCCN2CCCCC2)c2ccccc2)cc1 (stereo not shown) [Compound E-53]
IC50 [1]: 8 ± 4 µM
IC50 [2]: 31 ± 15 µM

COc1ccc(C(CCCN2CCOCC2)c2ccc(C)cc2)cc1 (stereo not shown) [Compound E-62]
IC50 [1]: 16 ± 8 µM
IC50 [2]: 20 ± 1 µM

COc1ccc(C(CCCN2CCCCC2)c2ccc(C)cc2)cc1 (stereo not shown) [Compound E-63]
IC50 [1]: 39 ± 10 µM
IC50 [2]: 32 ± 14 µM

COc1ccc(C(CCCN2CCOCC2)c2ccc(F)cc2)cc1 (stereo not shown) [Compound E-68]
IC50 [1]: 19 ± 6 µM
IC50 [2]: 33 ± 9 µM

COc1ccc(C(CCCN2CCCCC2)c2ccc(F)cc2)cc1 (stereo not shown) [Compound E-69]
IC50 [1]: 46 ± 7 µM
IC50 [2]: 94 ± 20 µM

Cc1ccc(C(CCCN2CCOCC2)c2ccc3c(c2)OCO3)cc1 (stereo not shown) [Compound E-84]
IC50 [1]: 19 ± 4 µM
IC50 [2]: 31 ± 3 µM

Cc1ccc(C(CCCN2CCCCC2)c2ccc3c(c2)OCO3)cc1 (stereo not shown) [Compound E-85]
IC50 [1]: 8 ± 2 µM
IC50 [2]: 36 ± 11 µM

COc1ccc(C(CCCN2CCOCC2)c2ccc3c(c2)OCO3)cc1 (stereo not shown) [Compound E-89]
IC50 [1]: 34 ± 7 µM
IC50 [2]: 39 ± 4 µM

COc1ccc(C(CCCN2CCCCC2)c2ccc3c(c2)OCO3)cc1 (stereo not shown) [Compound E-90]
IC50 [1]: 25 ± 8 µM
IC50 [2]: 74 ± 19 µM

c1ccc(CCCN2CCCCC2Cc2ccccc2)cc1 (stereo not shown) [NSC22789, reference compound]
IC50 [1]: 78 ± 16 µM
IC50 [2]: 90 ± 21 µM

CS(=O)(=O)Nc1ccc([N+](=O)[O-])cc1Oc1ccccc1 [Nimesulide]
IC50 [5]: 23 µM

From publication PMC7059793, “Novel Chemical Scaffolds to Inhibit the Neutral Amino Acid Transporter B^0AT1 (SLC6A19), a Potential Target to Treat Metabolic Diseases” (Frontiers in Pharmacology, 2020)
